Patent publication US12704521B2, “On-site rapid quantification of tetrahydrocannabinol” (The General Hospital Corporation, priority 2020, dated 2026)

Key:
[1] = test system: AuNPAb (THC antibody-coated gold nanoparticles); experiment: isothermal titration calorimetry of binding to AuNPAb
[2] = EPOCH test of oral fluid samples from cannabis users; type: in vivo, human
Excerpt: Informed consent was obtained from all subjects (cannabis smoker […]). Cannabis users were asked to take saliva samples right after cannabis smoking. Specifically, they were instructed to take a disposable swab (diameter, 1 cm; length, 1.5 cm) into the mouth and roll it for about one minute. The swab was then placed into the sample processing kit. Control samples were collected in the same manner from volunteers who self-declared no history of cannabis use. For the time-course monitoring, three cannabis smokers collected saliva samples hourly after their last smoking. Cylindrical saliva swabs were purchased (SalivaBio Oral Swab, Salimetrics, USA). These swabs were cut in the middle of their height to fit into the sample processing kit. Each halved swab collected about 0.5 mL of saliva.
Next, EPOCH was used for onsite THC detection. Oral fluid samples from recreational cannabis users (40 cannabis smokers and three THC jelly users) were collected within 10 minutes of product consumption and then tested. As a control, oral fluid samples were also assessed from non-cannabis users (13 traditional tobacco smokers and 30 non-smokers) without a history of cannabis use. […] We observed no significant difference between male and female subjects in any of the cohorts (P>0.05, two-sided Mann-Whitney test; FIG. 5C).
We also monitored how THC levels changed over time after cannabis smoking. In this case, oral fluid samples were collected hourly after the inhalation and subjected to the EPOCH tests.

CCCCCc1cc(O)c2c(c1)OC(C)(C)[C@@H]1CCC(C)=C[C@@H]21 [THC, Δ^9-tetrahydrocannabinol]
association constant Ka with AuNPAb [1]: 0.074 nM⁻¹
oral THC concentration in all cannabis-user samples ([2]; 43 cannabis users shortly after consumption, versus regulatory guideline): > 1 ng/mL
half-life of THC in saliva ([2]; after cannabis smoking, hourly samples, three users, single-phase exponential decay): 1.4 h
oral THC concentration (average/median) ([2]; cannabis smokers, oral fluid collected within 10 minutes of consumption): 478 ng/mL
half-life ([2]; human, saliva, inhaled, after cannabis smoking, hourly samples, three users, single-phase exponential decay, read-out: half-life of THC in saliva (converted)): 1.4 h
concentration at 6 h ([2]; human, saliva, po, six hours after cannabis smoking, read-out: oral THC level): > 1 ng/mL
